Active and inactive are the calls of the source. No cut-off for these calls is given here.
How the values were obtained:
Mus musculus [1] = assay: Anticonvulsant activity in Swiss mouse assessed as prolong latency to first seizure episode at 250 mg/kg pretreated for 0.5 hrs measured after 30 mins by subcutaneous pentylenetetrazole seizure test; type: functional, organism-based
Rattus norvegicus = species: Rattus norvegicus; assay: Displacement of [3H]nitrendipine from calcium channel L-Type dihydropyridine site in rat cerebral cortex at 100 uM after 120 mins by scintillation counting method; type: tissue-based
[2] = Protective index, ratio of TD50 for neurotoxicity in ip dosed Swiss mouse to ED50 for anticonvulsant activity in ip dosed scPTZ Swiss mouse model at 0.25 hrs; type: toxicity, organism-based; conditions: in vivo, read-out: Ratio TD50/ED50
Mus musculus [3] = assay: Anticonvulsant activity against ip dosed Swiss mouse seizure model assessed as protection at 0.25 hrs by 6 Hz psychomotor seizure test; type: functional
Mus musculus [4] = assay: Anticonvulsant activity in ip dosed Swiss mouse assessed as protection against maximal electroshock-induced seizures at 0.25 hrs; type: functional
Mus musculus [5] = assay: Anticonvulsant activity in Swiss mouse assessed as prolong latency to first seizure episode at 120 mg/kg pretreated for 0.25 hrs measured after 30 mins by subcutaneous pentylenetetrazole seizure test; type: functional, organism-based
Mus musculus [6] = assay: Toxicity in Swiss mouse assessed as death at 300 mg/kg, ip measured after 0.25 hrs; type: organism-based; conditions: in vivo
Mus musculus [7] = assay: Anticonvulsant activity in Swiss mouse assessed as protection against maximal electroshock-induced seizures at 300 mg/kg, ip pretreated for 0.25 hrs; type: functional, organism-based
Mus musculus [8] = assay: Anticonvulsant activity in Swiss mouse assessed as protection against maximal electroshock-induced seizures at 100 mg/kg, ip pretreated for 1 hr; type: functional, organism-based
Mus musculus [9] = assay: Anticonvulsant activity in Swiss mouse assessed as protection against maximal electroshock-induced seizures at 100 mg/kg, ip pretreated for 2 hrs; type: functional, organism-based
Mus musculus [10] = assay: Anticonvulsant activity in Swiss mouse assessed as protection against maximal electroshock-induced seizures at 100 mg/kg, ip pretreated for 0.25 hrs; type: functional, organism-based
Mus musculus [11] = assay: Anticonvulsant activity in Swiss mouse assessed as protection against maximal electroshock-induced seizures at 100 mg/kg, ip pretreated for 0.5 hrs; type: functional, organism-based
Mus musculus [12] = assay: Anticonvulsant activity in Swiss mouse assessed as protection against maximal electroshock-induced seizures at 300 mg/kg, ip pretreated for 2 hrs; type: functional, organism-based
Mus musculus [13] = assay: Anticonvulsant activity in Swiss mouse assessed as protection against maximal electroshock-induced seizures at 300 mg/kg, ip pretreated for 1 hr; type: functional, organism-based
Mus musculus [14] = assay: Anticonvulsant activity in ip dosed Swiss mouse assessed as reduction in clonic seizures at 0.5 hrs by subcutaneous pentylenetetrazole seizure test; type: functional
Mus musculus [15] = assay: Anticonvulsant activity in Swiss mouse assessed as reduction in clonic seizures at 100 mg/kg, ip pretreated for 2 hrs measured after 30 mins by subcutaneous pentylenetetrazole seizure test; type: functional, organism-based
[16] = Protective index, ratio of TD50 for neurotoxicity in ip dosed Swiss mouse to ED50 for anticonvulsant activity in ip dosed MES Swiss mouse model at 0.25 hrs; type: toxicity, organism-based; conditions: in vivo, read-out: Ratio TD50/ED50
Mus musculus [17] = assay: Antinociceptive activity in ip dosed Swiss mouse assessed as reduction of formalin-induced licking at MES ED50 pretreated for 0.25 hrs measured during 1 to 5 mins; type: functional; parameters: scale not given: the % may be the effect or the level left
Mus musculus [18] = assay: Anticonvulsant activity against Swiss mouse seizure model assessed as protection at 100 mg/kg, ip pretreated for 2 hrs by 6 Hz psychomotor seizure test; type: functional, organism-based
[19] = Protective index, ratio of TD50 for neurotoxicity in ip dosed Swiss mouse to ED50 for anticonvulsant activity in ip dosed Swiss mouse 6 Hz psychomotor seizure model at 0.25 hrs; type: toxicity, organism-based; conditions: in vivo, read-out: Ratio TD50/ED50
[20] = Neurotoxicity in ip dosed Swiss mouse seizure model assessed as motor impairment pretreated for 0.25 hrs measured within 60 s by chimney test; type: toxicity, organism-based; conditions: in vivo
Mus musculus [21] = assay: Anticonvulsant activity in Swiss mouse assessed as protection against maximal electroshock-induced seizures at 300 mg/kg, ip pretreated for 0.5 hrs; type: functional, organism-based
Mus musculus [22] = assay: Anticonvulsant activity against Swiss mouse seizure model assessed as protection at 100 mg/kg, ip pretreated for 0.25 hrs by 6 Hz psychomotor seizure test; type: functional, organism-based
Mus musculus [23] = assay: Antinociceptive activity in ip dosed Swiss mouse assessed as reduction of formalin-induced licking at MES ED50 pretreated for 0.25 hrs measured during 15 to 20 mins; type: functional; parameters: scale not given: the % may be the effect or the level left
[24] = Neurotoxicity in ip dosed Swiss mouse seizure model assessed as motor impairment pretreated for 0.5 hrs measured within 60 s by chimney test; type: toxicity, organism-based; conditions: in vivo
Mus musculus [25] = assay: Anticonvulsant activity in ip dosed Swiss mouse assessed as protection against maximal electroshock-induced seizures at 0.5 hrs; type: functional
Mus musculus [26] = assay: Anticonvulsant activity against ip dosed Swiss mouse seizure model assessed as protection at 0.5 hrs by 6 Hz psychomotor seizure test; type: functional
[27] = Neurotoxicity in ip dosed Swiss mouse seizure model assessed as motor impairment pretreated for 1 hr measured within 60 s by chimney test; type: toxicity, organism-based; conditions: in vivo
Mus musculus [28] = assay: Anticonvulsant activity in ip dosed Swiss mouse assessed as reduction in clonic seizures at 1 hr by subcutaneous pentylenetetrazole seizure test; type: functional
Mus musculus [29] = assay: Anticonvulsant activity in ip dosed Swiss mouse assessed as protection against maximal electroshock-induced seizures at 1 hr; type: functional
[30] = Protective index, ratio of TD50 for neurotoxicity in ip dosed Swiss mouse to ED50 for anticonvulsant activity in ip dosed Swiss mouse 6 Hz psychomotor seizure model at 1 hr; type: toxicity, organism-based; conditions: in vivo, read-out: Ratio TD50/ED50

CCCC(CCC)C(=O)O
Activity (Mus musculus [1]): Active

CC1(C)O[C@@H]2[C@@H](CO[C@@]3(COS(N)(=O)=O)OC(C)(C)O[C@@H]23)O1
inhibition (Rattus norvegicus): 7.9%

CCC1(C)CC(=O)NC1=O (configuration not stated) [ETHOSUXIMIDE]
selectivity ratio at 0.25 h [2]: 4.89 | ED50 (Mus musculus [3]): > 200 mg/kg | ED50 (Mus musculus [4]): > 500 mg/kg | Activity (Mus musculus [5]): Active

CC(C(=O)N1CCN(c2ccc(C(F)(F)F)cc2)CC1)N1C(=O)CC(C)(C)C1=O (configuration not stated)
Activity (Mus musculus [6]): Toxic | Activity (Mus musculus [7]): inactive

Cc1cccc(N2CCN(C(=O)C(C)N3C(=O)CC(C)(C)C3=O)CC2)c1 (configuration not stated)
Activity (Mus musculus [8]): inactive | Activity (Mus musculus [9]): inactive | Activity (Mus musculus [10]): inactive | Activity (Mus musculus [11]): inactive | Activity (Mus musculus [12]): inactive

COc1cccc(N2CCN(C(=O)C(C)N3C(=O)CC(C)(C)C3=O)CC2)c1 (configuration not stated)
Activity (Mus musculus [8]): inactive | Activity (Mus musculus [13]): inactive | Activity (Mus musculus [9]): inactive | Activity (Mus musculus [10]): inactive | Activity (Mus musculus [11]): inactive | Activity (Mus musculus [12]): inactive

CC(C(=O)N1CCN(c2cccc(Cl)c2)CC1)N1C(=O)CC(C)(C)C1=O (configuration not stated)
ED50 (Mus musculus [14]): > 130 mg/kg | ED50 (Mus musculus [3]): 19.8 mg/kg | Activity (Mus musculus [15]): inactive | selectivity ratio at 0.25 h [16]: 1.47 | Activity (Mus musculus [9]): inactive | Activity (Mus musculus [17]): 44% | Activity (Mus musculus [10]): Active | Activity (Mus musculus [18]): inactive | selectivity ratio at 0.25 h [19]: 8.91 | TD50 at 0.25 h [20]: 176 mg/kg | Activity (Mus musculus [21]): Active | Activity (Mus musculus [22]): Active | Activity (Mus musculus [23]): 91% | Activity (Mus musculus [7]): Active | ED50 (Mus musculus [4]): 120 mg/kg

CC1CC(=O)N(CC(=O)N2CCN(c3cccc(C(F)(F)F)c3)CC2)C1=O (configuration not stated)
ED50 (Mus musculus [14]): > 200 mg/kg | TD50 at 0.5 h [24]: 225 mg/kg | ED50 (Mus musculus [25]): 80.6 mg/kg | ED50 (Mus musculus [26]): 52.3 mg/kg

CC[C@@H](C(N)=O)N1CCCC1=O [LEVETIRACETAM]
TD50 at 1 h [27]: > 500 mg/kg | ED50 (Mus musculus [28]): > 500 mg/kg | ED50 (Mus musculus [29]): > 500 mg/kg | selectivity ratio at 1 h [30]: > 33.8

Source: ChEMBL document CHEMBL3745637, “New hybrid molecules with anticonvulsant and antinociceptive activity derived from 3-methyl- or 3,3-dimethyl-1-[1-oxo-1-(4-phenylpiperazin-1-yl)propan-2-yl]pyrrolidine-2,5-diones” (Bioorg Med Chem, 2016)
